Experimental data: US9035085B2, “Aryl ketone compounds and compositions for delivering active agents” (EMISPHERE TECHNOLOGIES, INC., priority 2004, dated 2015)

Assay: Insulin oral delivery in rats (blood glucose)
Assay type: in vivo, Male Sprague-Dawley rats
Conditions: delivery agent 200 mg/kg with insulin 0.50 mg/kg, 1 ml/kg
Description: The typical dosing and sampling protocols were as follows.

Compound	% Change in Glucose (from control)
O=C(O)CCC(=O)c1ccccc1 [Compound 1, 4-Oxo-4-phenyl-butyric acid]	−30.7%
O=C(O)CCCCC(=O)c1cc(F)cc(F)c1 [Compound 37]	−39.0%
CCc1ccc(C(=O)CCC(=O)O)cc1 [Compound 29]	−35.4%
O=C(O)CCCCCCC(=O)c1ccccc1 [Compound 25]	−20.8%
COc1ccccc1C(=O)CCC(=O)O [Compound 12]	−2.3%
CCCCCCOc1ccc(C(=O)CCC(=O)O)cc1 [Compound 34]	9.4%
O=C(O)CCCC(=O)c1ccccc1 [Compound 8]	−1.3%
O=C(O)CCCC(=O)c1ccc(Cl)cc1 [Compound 36]	−31.9%
O=C(O)CCCCCC(=O)c1ccccc1 [Compound 28]	−26.4%
COc1ccc(C(=O)CCC(=O)O)cc1 [Compound 5, 4-(4-Methoxy-phenyl)-4-oxo-butyric acid]	−12.1%
O=C(O)CCCC(=O)c1ccc(Oc2ccccc2)cc1 [Compound 40]	−3.9%
O=C(O)CCC(=O)c1cc(F)ccc1F [Compound 35]	−11.8%
O=C(O)CCC(=O)c1ccc(F)cc1F [Compound 30]	−10.5%
Cc1ccc(C(=O)CCCCC(=O)O)cc1C [Compound 16]	−25.1%
Cc1cc(C)cc(C(=O)CCCCC(=O)O)c1 [Compound 23]	−7.5%
O=C(O)CCCC(=O)c1cccc(Oc2ccccc2)c1 [Compound 41]	−16.5%
COc1ccc(C(=O)CCCCC(=O)O)cc1 [Compound 14]	−2.0%
O=C(O)CCCCCC(=O)c1cccc(Oc2ccccc2)c1 [Compound 42]	−13.8%
O=C(O)CCC(=O)c1cc(Cl)ccc1Cl [Compound 22]	−16.3%
Cc1cc(C)cc(C(=O)CCCCCCC(=O)O)c1 [Compound 20]	−6.6%
Cc1ccc(C(=O)CCC(=O)O)cc1 [Compound 38]	−26.9%
Cc1ccc(C)c(C(=O)CCC(=O)O)c1 [Compound 19]	−28.3%
O=C(O)CCCCC(=O)c1cc(Cl)ccc1Cl [Compound 21]	−40.8%
Cc1ccc(C(=O)CCC(=O)O)cc1C [Compound 17]	−9.5%
COc1c(C)cc(C(=O)CCCCC(=O)O)cc1C [Compound 10]	−13.5%
COc1ccc(C(=O)CCCC(=O)O)cc1 [Compound 6, 5-(4-Methoxy-phenyl)-5-oxo-pentanoic acid]	−18.3%
